From patent US20030158199A1, “Novel compounds for inhibition of Tie-2” (KYLIX, B.V., priority 2002, published 2003)
Where a name gives a salt, the structure may show the parent alone.

Key:
Assay type in all cases: biochemical
Tie-2 = target: T1, Tie-2 (Homo sapiens, UniProt Q02763); assay: RTK ELISA, recombinant kinase domain, Tie-2; conditions: GST-Tie2/Tek (aa 771-1124) expressed in baculovirus infected insect cells
T1 construct: GST-Tie2/Tek (aa 771-1124); GST (N); purchased ProQuinase, Freiburg; host or cells: baculovirus infected insect cells Sf9
T1 sequence (Q02763 771-1124): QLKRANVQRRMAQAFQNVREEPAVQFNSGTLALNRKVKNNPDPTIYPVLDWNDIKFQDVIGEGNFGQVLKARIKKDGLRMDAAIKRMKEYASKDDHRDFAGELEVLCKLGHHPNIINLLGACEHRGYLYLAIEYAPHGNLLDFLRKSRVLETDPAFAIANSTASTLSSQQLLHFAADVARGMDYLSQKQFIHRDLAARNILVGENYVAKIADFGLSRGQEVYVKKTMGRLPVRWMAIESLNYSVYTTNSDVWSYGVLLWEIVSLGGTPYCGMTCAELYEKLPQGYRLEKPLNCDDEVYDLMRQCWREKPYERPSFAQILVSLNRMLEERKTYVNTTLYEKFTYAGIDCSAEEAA
Method: (§1) Follwing IC50 values were determined in the RTK ELISA using recombinant kinase domains of receptor tyrosine kinases which were expressed in baculovirus infected insect cells.
(§2) Receptor Tyrosine Kinase Assay
(§3) The following in vitro assays are used to determine the ability of different compounds to inhibit the transfer of phosphate groups onto tyrosine residues of downstream substrates. The level of phosphorylation is measured by a monoclonal antibody which is specific for phosphorylated tyrosine residues in an enzyme-linked immunosorbent assay (ELISA).
(§4) The following recombinant kinases were expressed in baculovirus infected insect cells Sf9 and purchased from ProQuinase, Freiburg:
(§5) If not otherwise indicated all steps are performed at room temperature.
(§6) 1.) Coat wells of ELISA plate with […] Poly-Glu-Tyr 4:1 in 100 μl/well PBS buffer (137 mM NaCl, 3 mM KCl, 1.5 mM KH2PO4, 8.2 mM Na2HPO4) overnight at 4° C.
(§7) 2.) Wash 2 times for 5 min each with PBS+0.05% Tween20 […]
(§8) a) Add 5-30 ng/well kinase in 50 μl/well kinase buffer (100 mM HEPES pH 7.4, 100 mM NaCl, 0.1 mM Na3VO4) b) Add 25 μl/well compound (50 and 5 μM) in 5% DMSO c) Add 25 μl/well 100 μM ATP in 40 mM MnCl2
(§9) 4.) Wash 3 times for 5 min each with PBS+0.05% Tween20
(§10) 5.) Add anti phosphotyrosin antibody/HRP 1:10.000 in 100 μl/well PBS+0.05% Tween+0.1 BSA, incubate for 1 h
(§11) 6.) Wash 3 times for 5 min each with PBS+0.05% Tween20
(§12) 7.) Chemoluminescence reaction: a.) Premix 25 μl/well BM CLS Solution 1 with 0.25 μl/well BM CLS Solution 2 b.) Preincubate for 15 min […]
(§13) d.) Add 50 μl/well substrate solution to microtiter wells e.) Incubate for at least 1 min
(§14) 8.) Detect chemoluminescence signals in Tecan Genios reader

KDR = target: T2, KDR (Homo sapiens, UniProt P35968); assay: RTK ELISA, recombinant kinase domain, KDR; conditions: GST-KDR (aa807-1356) expressed in baculovirus infected insect cells
T2 construct: GST-KDR (aa807-1356); GST (N); purchased ProQuinase, Freiburg; host or cells: baculovirus infected insect cells Sf9
T2 sequence (P35968 807-1356): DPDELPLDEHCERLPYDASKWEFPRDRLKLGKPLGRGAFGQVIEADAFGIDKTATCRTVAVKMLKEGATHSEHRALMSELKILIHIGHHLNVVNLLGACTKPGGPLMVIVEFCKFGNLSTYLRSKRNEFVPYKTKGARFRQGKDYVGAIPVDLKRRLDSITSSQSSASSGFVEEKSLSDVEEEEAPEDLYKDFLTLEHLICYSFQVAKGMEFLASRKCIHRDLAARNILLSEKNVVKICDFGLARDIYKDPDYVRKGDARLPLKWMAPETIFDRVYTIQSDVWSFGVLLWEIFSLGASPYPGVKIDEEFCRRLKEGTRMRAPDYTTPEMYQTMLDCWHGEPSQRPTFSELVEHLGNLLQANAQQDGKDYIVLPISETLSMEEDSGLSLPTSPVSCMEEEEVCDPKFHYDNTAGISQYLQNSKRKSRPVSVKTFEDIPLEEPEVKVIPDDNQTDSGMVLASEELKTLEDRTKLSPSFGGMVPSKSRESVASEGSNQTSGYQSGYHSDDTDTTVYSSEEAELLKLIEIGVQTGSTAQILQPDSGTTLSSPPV
Method: as §1, §2, §3, §4, §5, §6, §7, §8, §9, §10, §11, §12, §13, §14

c-Met = target: T3, c-Met (Homo sapiens, UniProt P08581); assay: RTK ELISA, recombinant kinase domain, c-Met; conditions: GST-cMet (aa956-1390) expressed in baculovirus infected insect cells
T3 construct: GST-cMet (aa956-1390); GST (N); purchased ProQuinase, Freiburg; host or cells: baculovirus infected insect cells Sf9
T3 sequence (P08581 956-1390): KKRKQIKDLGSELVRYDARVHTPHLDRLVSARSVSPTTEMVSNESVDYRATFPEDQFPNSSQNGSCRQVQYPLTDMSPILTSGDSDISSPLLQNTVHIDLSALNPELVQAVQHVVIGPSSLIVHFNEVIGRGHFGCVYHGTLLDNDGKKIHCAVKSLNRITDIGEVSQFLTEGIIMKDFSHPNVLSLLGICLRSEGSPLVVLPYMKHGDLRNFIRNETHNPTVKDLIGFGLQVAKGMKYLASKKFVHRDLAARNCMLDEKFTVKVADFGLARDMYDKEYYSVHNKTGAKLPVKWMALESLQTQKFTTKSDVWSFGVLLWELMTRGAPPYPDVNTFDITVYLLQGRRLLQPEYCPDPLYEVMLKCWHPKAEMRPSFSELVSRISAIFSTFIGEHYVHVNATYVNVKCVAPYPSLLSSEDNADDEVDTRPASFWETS
Method: as §1, §2, §3, §4, §5, §6, §7, §8, §9, §10, §11, §12, §13, §14

IC50 (Tie-2) [µM]	IC50 (KDR) [µM]	IC50 (c-Met) [µM]	SMILES
< 1	1	> 10	O=C(O)c1ccc(Nc2nc(-c3ccc(N4CCCC4)cc3)cs2)cc1 [Number 20, 4-[4-(4-pyrrolidin-1-yl-phenyl)-thiazol-2-ylamino]-benzoic Acid Hydrobromide]
> 50			c1ccc(CCNc2nc(-c3ccc(N4CCCC4)cc3)cs2)cc1 [Number 11, phenylethyl-[4-(4-pyrrolidin-1-yl-phenyl)-thiazol-2-yl]-amine Hydrobromide]
5	2.5	> 25	c1ccc(Nc2nc(-c3ccc(N4CCCC4)cc3)cs2)cc1 [Number 8, phenyl-[4-(4-pyrrolidin-1-yl-phenyl)-thiazol-2-yl]-amine Hydrobromide]
2	2	> 50	FC(F)(F)c1cccc(Nc2nc(-c3ccc(N4CCCC4)cc3)cs2)c1 [Number 19, [4-(4-pyrrolidin-1-yl-phenyl)-thiazol-2-yl]-(3-trifluoromethyl-phenyl)-amine Hydrobromide]
3	7	> 50	CNc1nc(-c2ccc(N3CCCC3)cc2)cs1 [Number 7, methyl-[4-(4-pyrrolidin-1-yl-phenyl)-thiazol-2-yl]-amine Hydrobromide]
2.5	> 25	> 25	CN(c1ccccc1)c1nc(-c2ccc(N3CCCC3)cc2)cs1 [Number 9, methyl-phenyl-[4-(4-pyrrolidin-1-yl-phenyl)-thiazol-2-yl]-amine Hydrobromide]
1	5	> 10	c1cc(Nc2nc(-c3ccc(N4CCCC4)cc3)cs2)ccn1 [Number 15, pyridin-4-yl-[4-(4-pyrrolidin-1-yl-phenyl)-thiazol-2-yl]-amine Hydrobromide]
> 50			c1ccc(Nc2nc(-c3ccc(N4CCCC4)cc3)cs2)nc1 [Number 12, Hydrobromide]
5	> 50	> 50	c1ccc(CNc2nc(-c3ccc(N4CCCC4)cc3)cs2)cc1 [Number 10, benzyl-[4-(4-pyrrolidin-1-yl-phenyl)-thiazol-2-yl]-amine Hydrobromide]
1	2	> 10	c1cncc(Nc2nc(-c3ccc(N4CCCC4)cc3)cs2)c1 [Number 13, Hydrobromide]

Second part, the compound before the results:

SMILES	IC50 (Tie-2) [µM]	IC50 (KDR) [µM]	IC50 (c-Met) [µM]
CCN(CC)c1ccc(-c2csc(Nc3ccccn3)n2)cc1 [Number 29, [4-(4-diethylamino-phenyl)-thiazol-2-yl)-pyridin-2-yl-amine Hydrobromide]	> 50	> 50	> 50
CCN(CC)c1ccc(-c2csc(Nc3ccccc3)n2)cc1 [Number 26, [4-(4-Diethylamino-phenyl)-thiazol-2-yl]-phenyl-amine Hydrobromide]	2	2	> 25
CNc1nc(-c2ccc(-c3ccccn3)s2)cs1 [Number 36, methyl-[4-(5-pyridin-2-yl-thiophen-2-yl)-thiazol-2-yl]-amine Hydrobromide]	> 20	> 10	> 50
c1cncc(-c2nc(-c3ccc(N4CCCC4)cc3)co2)c1 [Number 14, 3-[4-(4-pyrrolidin-1-yl-phenyl)-oxazol-2-yl]-pyridine Hydrobromide]	5	> 50	> 25
CCN(CC)c1ccc(-c2csc(Nc3cccnc3)n2)cc1 [Number 30]	0.8	3	> 50
c1cc(-c2nc(-c3ccc(N4CCCC4)cc3)co2)ccn1 [Number 16, 4-[4-(4-pyrzolidin-1-yl-phenyl)-oxazol-2-yl]-pyridine Hydrobromide]	> 50	> 50	> 50
CCN(CC)c1ccc(-c2csc(NC)n2)cc1 [Number 25, [4-(4-diethylamino-phenyl)-thiazol-2-yl]-methyl-amine Hydrobromide]	1	5	> 50
c1ccc(-c2ccc(-c3csc(Nc4cccnc4)n3)s2)nc1 [Number 37, pyridin-3-yl-[(4-(5-pyridin-2-yl-thiophen-2-yl)-thiazol-2-yl]-amine Hydrobromide]	2.5	> 50	> 50
CCN(CC)c1ccc(-c2csc(C)n2)cc1 [Number 33, diethyl-[4-(2-methyl-thiazol-4-yl)-phenyl]-amine Hydrobromide]	5	5	> 50
CNc1nc(-c2cnn(-c3ccccc3)c2C)cs1 [Number 34, methyl-[4-(5-methyl-1-phenyl-1H-pyrazol-4-yl)-thiazol-2-yl]-amine Hydrochloride]	1.5	1.5	> 50
CCN(CC)c1ccc(-c2coc(N)n2)cc1 [Number 24, 4-(4-diethylamino-phenyl)-oxazol-2-ylamine Hydrobromide]	5	1.5	> 50
Nc1nc(-c2ccc(N3CCCC3)cc2)cs1 [Number 5, 4-(4-pyrrolidin-1-yl-phenyl)-thiazol-2-ylamine Hydrobromide]	2.5	5	5
CCN(CC)c1ccc(-c2csc(N)n2)cc1 [Number 23, 4-(4-diethylamino-phenyl)-thiazol-2-ylamine Hydrobromide]	5	2	> 50
c1ccc(Nc2nccs2)cc1 [Number 3, phenyl-thiazol-2-yl-amine Hydrochloride]		3.5	> 50
CCN(CC)c1ccc(-c2csc(NCc3ccccc3)n2)cc1 [Number 28, benzyl-[4-(4-diethylamino-phenyl)-thiazol-2-yl]-amine Hydrobromide]	> 50	> 50	> 50
O=[N+]([O-])c1ccc(Nc2nc(-c3ccc(N4CCCC4)cc3)cs2)cc1 [Number 17, Dihydrobromide]	2	> 10	> 25
CCN(CC)c1ccc(-c2csc(Nc3cccc(C(F)(F)F)c3)n2)cc1 [Number 32, [4-(4-diethylamino-phenyl)-thiazol-2-yl-(3-trifluoromethyl-phenyl)-amine Hydrobromide]	3	5	> 50
Nc1nc(-c2ccc(N3CCCC3)cc2)co1 [Number 6, 4-(4-pyrrolidin-1-yl-phenyl)-oxazol-2-ylamine Hydrobromide]	5	> 25	> 50
Cc1nc(-c2ccc(N3CCCC3)cc2)cs1 [Number 21, 2-methyl-4-(4-pyrrolidin-1-yl-phenyl)-thiazole Hydrobromide]	2.5		> 50
CCN(CC)c1ccc(-c2csc(N(C)c3ccccc3)n2)cc1 [Number 27, [4-(4-diethylamino-phenyl)-thiazol-2-yl]-methyl-phenyl-amine Hydrobromide]	> 50	> 50	> 50
c1ccc(CCNc2nc(-c3ccccn3)cs2)cc1 [Number 35, phenylethyl-(4-pyridin-2-yl-thiazol-2-yl)-amine Hydrobromide]	1	1	2
c1cncc(Nc2nccs2)c1 [Number 4, pyridin-3-yl-thiazol-2-yl-amine Hydrochloride]	> 50	5	> 25
c1cc(Nc2nc(-c3ccc(N4CCCC4)cc3)cs2)ccc1Nc1nc(-c2ccc(N3CCCC3)cc2)cs1 [Number 18, N,N′-bis-[4-(4-pyrrolidin-1-yl-phenyl)-thiazol-2-yl]-benzene-1,4-diamine Dihydrobromide]	> 10	> 10	> 50
CNc1nccs1 [Number 2, methyl-thiazol-2-yl-amine Hydrochloride]	> 50	5	> 50
